# Reference: patent publication US11447484B2, “Cyclic compound having dopamine D3 receptor antagonistic effect” (Shionogi & Co., Ltd., priority 2018, dated 2022)
# How the values were obtained:
# [1] = molecular target: human recombinant D3 receptor (Homo sapiens (Human), UniProt P35462); assay: Test of binding inhibition for dopamine D3 receptor; settings: Jump-In HEK cell membranes, 2 nM [3H]-Methylspiperone, 120 min at 25° C.; read-out: hD3_Ki
# Method: Test Example 1: Test of Binding Inhibition for Dopamine D3 Receptor
# (§1) (Experimental Conditions)
# Cell membranes: Jump-In HEK cell membranes expressing human recombinant D3 receptor (4 μg/well)
# (§2) Buffer solution: 50 mM Tris-HCl (35409-45, Nacalai Tesque) (pH 7.4) containing 120 mM NaCl (31320-05, Nacalai Tesque), 1 mM MgCl2.6H2O (20909-55, Nacalai Tesque), 5 mM KCl (28514-75, Nacalai Tesque) and 2 mM CaCl2 (067-31, NAKARAI CHEMICALS, LTD.)
# Radioligand: (final concentration) 2 nM [^3H]-Methylspiperone ([^3H—N-methyl-]-Methylspiperone, NET-856, 83.8 Ci/mmol, PerkinElmer)
# Non-specific ligand: (final concentration) 10 μM Butaclamol [(+)-Butaclamol Hydrochloride, D033, Sigma]
# (§3) SPA beads solution: SPA beads [WGA PVT SPA Scintillation Beads, RPNQ0001 (500 mg), RPNQ0060 (2 g), PerkinElmer] (0.2 mg/well)
# (§4) Incubation time and temperature: 120 min at 25° C.
# (§5) Butaclamol or the compounds of the present invention were weighed and DMSO was added to make a 10 mM solution. This solution was diluted to each concentration.
# [^3H]-Methylspiperone was weighed and the buffer solution was added to make a 6 nM solution.
# (§6) SPA beads were weighed and stirred in water to make a 50 mg/mL solution. Using this solution, a mixture with the cell membranes was prepared.
# (§7) 225 nL of the solutions of the non-specific ligand or the compounds of the present invention at each concentration (in case of vehicle, final concentration 0.3% DMSO) were added in each well of a 384-well white/clear bottom microplate (3706, Corning). Jump-In HEK Cell membranes (final reaction amount: 4 μg protein/well), the SPA beads solution (final reaction amount: 0.2 mg/well) and the buffer solution were mixed and the mixed solution was left still for 1 hour or more at 4° C. Then, 50 μL of the mixture was added to each well of the plate. In addition, 25 μL of 6 nM [^3H]-Methylspiperone (final concentration: 2 nM) was added to each well. The plate was sealed by putting TopSeal-A 96/384 well (6050185, PerkinElmer, Inc.) on the top of the plate, mixed using stirring deaerator (Well Tornado, FK-62, Sakaki-elc.) and incubated for 120 min at 25° C. After incubation, the radioactivity of [^3H]-Methylspiperone which was bonded to D3 receptor was determined by liquid scintillation counter (1450 Microbeta, PerkinElmer) in each well. Non-specific binding was calculated based on the radioactivity of [^3H]-Methylspiperone in the presence of 10 μM non-labeled Butaclamol. The total binding was calculated using the radioactivity of [^3H]-Methylspiperone in the absence of the compounds of the present invention (vehicle). The Ki values were calculated from dose-response curves.
# (§8) Binding activities of the compounds of the present invention were calculated from the following Binding Inhibition Rate (%): Inhibition Rate(%)=[1−(c−a)/(b−a)]×100 • a: Average cpm of non-specific binding • b: Average cpm of total binding • c: Cpm in the presence of each test compound
# [2] = molecular target: human recombinant D2 receptor (Homo sapiens (Human), UniProt P14416); assay: Test of binding inhibition for dopamine D2 receptor; settings: Jump-In HEK cell membranes, 1.2 nM [3H]-Methylspiperone, 120 min at 25° C.; read-out: hD2_Ki
# Method: Test Example 2: Test of Binding Inhibition for Dopamine D2 Receptor
# as §1
# Cell membranes: Jump-In HEK cell membranes expressing human recombinant D2 receptor (2 μg/well)
# as §2
# Radioligand: (final concentration) 1.2 nM [^3H]-Methylspiperone ([^3H—N-methyl-]-Methylspiperone, NET-856, 83.8 Ci/mmol, PerkinElmer)
# Non-specific ligand: (final concentration) 10 μM Butaclamol [(+)-Butaclamol Hydrochloride, D033; Sigma]
# as §3, §4, §5
# [^3H]-Methylspiperone was weighed and the buffer solution was added to make a 3.6 nM solution.
# as §6
# as §7, with “amount: 2” for “amount: 4”, “SPA bead” for “SPA beads”, “of 3.6” for “of 6”, “concentration: 1.2” for “concentration: 2”, “(6050185, PerkinElmer)” for “(6050185, PerkinElmer, Inc.)”, “to D2” for “to D3”
# as §8
# human recombinant D3 receptor, sequence (P35462 whole entry): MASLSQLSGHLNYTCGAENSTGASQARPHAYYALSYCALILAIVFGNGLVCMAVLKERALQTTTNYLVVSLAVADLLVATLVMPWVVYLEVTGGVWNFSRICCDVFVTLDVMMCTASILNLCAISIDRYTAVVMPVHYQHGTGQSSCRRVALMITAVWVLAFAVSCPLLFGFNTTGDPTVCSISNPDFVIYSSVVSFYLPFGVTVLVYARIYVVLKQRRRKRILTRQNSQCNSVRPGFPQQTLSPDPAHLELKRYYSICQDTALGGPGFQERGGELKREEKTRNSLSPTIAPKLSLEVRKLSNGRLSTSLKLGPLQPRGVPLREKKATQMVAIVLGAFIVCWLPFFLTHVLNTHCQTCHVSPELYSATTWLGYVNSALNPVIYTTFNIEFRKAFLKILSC
# human recombinant D2 receptor, sequence (P14416 whole entry): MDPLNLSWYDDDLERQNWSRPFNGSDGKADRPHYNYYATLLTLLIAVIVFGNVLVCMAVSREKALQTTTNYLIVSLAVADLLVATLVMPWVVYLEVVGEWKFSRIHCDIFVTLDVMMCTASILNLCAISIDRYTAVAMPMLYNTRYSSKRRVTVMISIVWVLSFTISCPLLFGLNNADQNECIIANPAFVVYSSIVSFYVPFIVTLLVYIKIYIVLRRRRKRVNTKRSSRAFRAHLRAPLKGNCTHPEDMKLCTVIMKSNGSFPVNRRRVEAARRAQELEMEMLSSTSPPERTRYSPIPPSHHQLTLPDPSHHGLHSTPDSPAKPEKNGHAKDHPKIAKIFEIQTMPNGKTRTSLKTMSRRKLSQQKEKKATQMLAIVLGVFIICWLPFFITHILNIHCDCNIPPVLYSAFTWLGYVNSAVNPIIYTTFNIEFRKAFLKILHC
Structure (SMILES),Ki [1] [nM],Ki [2] [nM]
CC(=O)c1conc1C1=CCN(CC[C@H]2CC[C@H](NC(=O)c3cccc4nn(C)cc34)CC2)CC1 [Compound I-023],0.69,1700
Cn1cc2c(C(=O)N[C@H]3CC[C@H](CCN4CCC5CC5(c5cc(C(C)(F)F)on5)C4)CC3)cccc2n1 (stereo partly drawn) [Compound I-025],2.4,1200
Cn1cc2c(C(=O)N[C@H]3CC[C@](F)(CCN4CCC(c5nocc5C(C)(F)F)CC4)CC3)cccc2n1 [Compound I-026],0.55,250
Cc1ncc(CC(=O)N[C@H]2CC[C@H](CCN3CC4CC4(c4cc(CF)on4)C3)CC2)s1 (stereo partly drawn) [Compound I-029],2.2,1100
Cc1cc(C23CC2CN(CC[C@H]2CC[C@H](NC(=O)c4cccc5nn(C)cc45)CC2)C3)no1 (stereo partly drawn) [Compound I-030],2.9,> 1800
Cc1cc(C23CC2CN(CC[C@H]2CC[C@H](NC(=O)Cc4cnc(C)s4)CC2)C3)no1 (stereo partly drawn) [Compound I-031],3.8,> 1800
CCc1cc([C@]23C[C@H]2CN(CC[C@H]2CC[C@H](NC(=O)c4cccc5nn(C)cc45)CC2)C3)no1 [Compound I-037],0.7,290
Cc1cnc(CC(=O)N[C@H]2CC[C@H](CCN3C[C@@H]4C[C@]4(c4cc(C(C)(F)F)on4)C3)CC2)o1 [Compound I-040],0.56,350
Cn1cc(OCC(=O)N[C@H]2CC[C@H](CCN3C[C@@H]4C[C@]4(c4cc(C(C)(F)F)on4)C3)CC2)cn1 [Compound I-044],0.83,220
CCc1cc([C@]23C[C@H]2CN(CC[C@H]2CC[C@H](NC(=O)c4cccnc4C)CC2)C3)no1 [Compound I-047],1.4,530
CCc1cc([C@]23C[C@H]2CN(CC[C@H]2CC[C@H](NC(=O)COc4cnn(C)c4)CC2)C3)no1 [Compound I-048],0.71,550
CCc1cc([C@]23C[C@H]2CN(CC[C@H]2CC[C@H](NC(=O)Cc4ncc(C)o4)CC2)C3)no1 [Compound I-054],1.2,780
CCc1cc([C@]23C[C@H]2CN(CC[C@H]2CC[C@H](NC(=O)Cc4cnn(C)c4)CC2)C3)no1 [Compound I-056],0.62,1000
CCc1cc([C@]23C[C@H]2CN(CC[C@H]2CC[C@H](NC(=O)c4cccn5nccc45)CC2)C3)no1 [Compound I-057],0.47,230
CCc1cc([C@]23C[C@H]2CN(CC[C@H]2CC[C@H](NC(=O)Cc4noc(C)n4)CC2)C3)no1 [Compound I-058],1.3,790
CCc1cc([C@]23C[C@H]2CN(CC[C@H]2CC[C@H](NC(=O)Cc4nnc(C)s4)CC2)C3)no1 [Compound I-059],0.77,550
Cn1ncc(CC(=O)N[C@H]2CC[C@H](CCN3C[C@@H]4C[C@]4(c4cc(C5CC5)on4)C3)CC2)n1 [II-5],0.71,860

# The next molecules have a lower Ki [1] than those just listed; values first:
Ki [1] [nM],Ki [2] [nM],Structure (SMILES)
0.45,270,Cn1cc(CC(=O)N[C@H]2CC[C@H](CCN3C[C@@H]4C[C@]4(c4cc(C(C)(F)F)on4)C3)CC2)cn1 [Compound I-043]
0.45,730,Cc1ncc(OCC(=O)N[C@H]2CC[C@H](CCN3C[C@@H]4C[C@]4(c4cc(C5CC5)on4)C3)CC2)cn1 [II-4]
0.44,830,CCc1cc([C@]23C[C@H]2CN(CC[C@H]2CC[C@H](NC(=O)COc4cnc(C)nc4)CC2)C3)no1 [Compound I-049]
0.42,200,CCc1cc([C@]23C[C@H]2CN(CC[C@H]2CC[C@H](NC(=O)c4ccc(F)c5nn(C)cc45)CC2)C3)no1 [Compound I-050]
0.42,> 2300,Cn1cc2c(C(=O)N[C@H]3CC[C@](F)(CCN4C[C@@H]5C[C@]5(c5cc(C(C)(F)F)on5)C4)CC3)cccc2n1 [II-1]
0.4,200,Cn1cc2c(C(=O)N[C@H]3CC[C@H](CCN4CC5CC5(c5cc(C(F)F)on5)C4)CC3)cccc2n1 (stereo partly drawn) [Compound I-032]
0.39,300,Cn1ncc(CC(=O)N[C@H]2CC[C@H](CCN3C[C@@H]4C[C@]4(c4cc(C(C)(F)F)on4)C3)CC2)n1 [Compound I-039]
0.36,730,Cn1cc(CC(=O)N[C@H]2CC[C@H](CCN3C[C@@H]4C[C@]4(c4cc(C5CC5)on4)C3)CC2)cn1 [II-3]
0.3,> 1800,Cn1cc2c(C(=O)N[C@H]3CC[C@H](CCN4C[C@@H]5C[C@]5(c5cc(C(C)(F)F)on5)C4)CC3)cccc2n1 [Compound I-027]
0.3,380,CCc1cc([C@]23C[C@H]2CN(CC[C@H]2CC[C@H](NC(=O)/C=C/c4cnc(C)nc4)CC2)C3)no1 [Compound I-051]
0.28,240,Cc1ncc(CC(=O)N[C@H]2CC[C@H](CCN3C[C@@H]4C[C@]4(c4cc(C(C)(F)F)on4)C3)CC2)o1 [Compound I-041]
0.25,190,Cc1ncccc1C(=O)N[C@H]1CC[C@H](CCN2C[C@@H]3C[C@]3(c3cc(C(C)(F)F)on3)C2)CC1 [Compound I-036]
0.24,870,Cn1cc2c(C(=O)NN3CCC(CCN4C[C@@H]5C[C@]5(c5cc(C(C)(F)F)on5)C4)CC3)cccc2n1 [Compound I-035]
0.23,850,CCc1cc([C@]23C[C@H]2CN(CC[C@H]2CC[C@H](NC(=O)Cc4cc(C)no4)CC2)C3)no1 [Compound I-055]
0.2,380,Cn1cc2c(C(=O)N[C@H]3CC[C@H](CCN4CC5CC5(c5cc(C6CC6)on5)C4)CC3)cccc2n1 (stereo partly drawn) [II-2]
0.13,86,CN1Cc2c(C(=O)N[C@H]3CC[C@H](CCN4C[C@@H]5C[C@]5(c5cc(C(C)(F)F)on5)C4)CC3)cccc2C1=O [Compound I-045]
0.082,220,Cn1cc2c(C(=O)N[C@H]3CC[C@H](CCN4CC=C(c5nocc5C(C)(F)F)CC4)CC3)cccc2n1 [Compound I-024]
0.073,91,CCn1c(C(=O)N[C@H]2CC[C@H](CCN3C[C@@H]4C[C@]4(c4cc(C(C)(F)F)on4)C3)CC2)cccc1=O [Compound I-038]
0.061,1300,Cc1cc(CC(=O)N[C@H]2CC[C@H](CCN3C[C@@H]4C[C@]4(c4cc(C(C)(F)F)on4)C3)CC2)on1 [Compound I-042]
